Laboratory results: US12234230B2, “Substituted benzyl-triazole compounds for Cbl-b inhibition, and further uses thereof” (Nurix Therapeutics, Inc., priority 2019, dated 2025)

Columns and labels:
Cbl-b [1] = molecular target: T1, Cbl-b (Homo sapiens (Human), UniProt Q13191); assay: Cbl-b displacement assay (Cbl-b inhibition assay), Biological Example 8; format: binding; conditions: 0.125 nM Cbl-b final concentration (Low); Table 8-1
Description: (§1) Candidate compounds were evaluated for their ability to bind and inhibit Cbl-b, an E3 ubiquitin-protein ligase, as evidenced by their ability to displace a fluorophore-labeled probe bound to Cbl-b.
(§2) The ability of candidate compounds to displace a known inhibitor and thereby inhibit Cbl-b activity was measured by monitoring the interaction of Cbl-b with a fluorophore-labeled probe in the presence of the candidate compound.
(§3) Fluorescently-labeled inhibitor probe was synthesized and tagged with BODIPY FL. […] Following the one hour incubation, the plates were read for TR-FRET signal at 520/620 nm using an Envision plate reader (Perkin Elmer).
(§4) The resulting data for the Cbl-b activity assays were analyzed using standard methods to determine the IC50 values for the tested compounds.

Cbl-b [2] = molecular target: T1, Cbl-b; assay: Cbl-b displacement assay (Cbl-b inhibition assay), Biological Example 11; format: binding; conditions: 0.125 nM Cbl-b final concentration (Low); Table 11-1
Description: as §1, §2, §3, §4

[3] = system: primary human total T-cells; assay: Primary human total T-cell activation (IL-2 secretion, CD25 surface staining), Biological Example 12; conditions: fold change over baseline, Table 12-1; for IL-2 secretion CD3/CD28 0.3 μM: 0.3 μM inhibitor; for IL-2 secretion CD3/CD28 0.3 μM / IL-2 secretion CD3/CD28 1 μM: anti-CD3 and anti-CD28 co-stimulation; for IL-2 secretion CD3/CD28 1 μM / IL-2 secretion CD3 1 μM: 1 μM inhibitor
Description: Peripheral blood mononuclear cells (PBMC) were obtained either: 1) by using Ficoll-Paque™ (GE Healthcare) for separation of peripheral blood hematopoietic cells from buffy coats of healthy human donors; or 2) directly from LeukoPak donations. […] The cells were rested overnight at 37° C. 5% CO2. The Cbl-inhibitor was added to 1×10^5 cells per well and the plate was incubated for one hour at 37° C. in 5% CO2 at the concentrations indicated (Table 12-1) with a final DMSO concentration of <0.1%. For samples stimulated with anti-CD3 antibody and anti-CD28 antibody (anti-CD3/anti-CD28), the Cbl-b inhibitor concentrations tested were 1 μM, and 0.3 μM. For samples stimulated with anti-CD3 antibody alone (anti-CD3), the Cbl-b inhibitor concentrations tested were 3 μM, and 1 μM. […] To prepare plates with plate bound anti-CD3 antibody (OKT3), 96-well round bottom tissue culture plates were coated with 100 μL of anti-CD3 antibody (OKT3) at 10 μg/mL for 4 hours at 37° C. 5% CO2 in phosphate buffered saline (PBS). […] Cells were stimulated for 48 hours prior to harvesting the cell free supernatant and staining the cell population for surface marker assessment by flow cytometry. Supernatants were analyzed for cytokine secretion, including IL-2 by ELISA (R&D Systems, Peprotech or Life Technologies) or Luminex multiplex kits (Procarta Life Technologies) following the manufacturer's protocol. Cells were stained with anti-CD25 antibody (BD Biosciences) to assess levels of surface marker of activation.
Readouts were reported as fold change over baseline. Baseline for this study was the measurement obtained from total human T-cells stimulated with anti-CD3 antibody and with soluble anti-CD28 antibody, wherein the cells were not incubated with a Cbl-b inhibitor (Table 12-1). […] For T-cells stimulated with anti-CD3 alone, changes greater than 0.1-fold over baseline for IL-2 secretion and greater than 0.6-fold over baseline for CD25 surface staining were considered significant and a positive response.

[4] = system: primary human total T-cells; assay: Primary human total T-cell activation (IL-2 secretion, CD25 surface staining), Biological Example 9; conditions: fold change over baseline, Table 9-1; for IL-2 secretion CD3/CD28 0.3 μM: 0.3 μM inhibitor; for IL-2 secretion CD3/CD28 0.3 μM / IL-2 secretion CD3/CD28 1 μM: anti-CD3 and anti-CD28 co-stimulation; for IL-2 secretion CD3/CD28 1 μM / IL-2 secretion CD3 1 μM: 1 μM inhibitor
Description: Peripheral blood mononuclear cells (PBMC) were obtained either: 1) by using Ficoll-Paque™ (GE Healthcare) for separation of peripheral blood hematopoietic cells from buffy coats of healthy human donors; or 2) directly from LeukoPak donations. […] The cells were rested overnight at 37° C. 5% CO2. The Cbl-inhibitor was added to 1×10^5 cells per well and the plate was incubated for one hour at 37° C. in 5% CO2 at the concentrations indicated (Table 9-1) with a final DMSO concentration of <0.1%. For samples stimulated with anti-CD3 antibody and anti-CD28 antibody (anti-CD3/anti-CD28), the Cbl-b inhibitor concentrations tested were 1 μM, and 0.3 μM. For samples stimulated with anti-CD3 antibody alone (anti-CD3), the Cbl-b inhibitor concentrations tested were 3 μM, and 1 μM. […] To prepare plates with plate bound anti-CD3 antibody (OKT3), 96-well round bottom tissue culture plates were coated with 100 μL of anti-CD3 antibody (OKT3) at 10 μg/mL for 4 hours at 37° C. 5% CO2 in phosphate buffered saline (PBS). […] Cells were stimulated for 48 hours prior to harvesting the cell free supernatant and staining the cell population for surface marker assessment by flow cytometry. Supernatants were analyzed for cytokine secretion, including IL-2 by ELISA (R&D Systems, Peprotech or Life Technologies) or Luminex multiplex kits (Procarta Life Technologies) following the manufacturer's protocol. Cells were stained with anti-CD25 antibody (BD Biosciences) to assess levels of surface marker of activation.
Readouts were reported as fold change over baseline. Baseline for this study was the measurement obtained from total human T-cells stimulated with anti-CD3 antibody and with soluble anti-CD28 antibody, wherein the cells were not incubated with a Cbl-b inhibitor (Table 9-1). […] For T-cells stimulated with anti-CD3 alone, changes greater than 0.1-fold over baseline for IL-2 secretion and greater than 0.6-fold over baseline for CD25 surface staining were considered significant and a positive response.

[5] = system: primary human total T-cells; assay: Primary human total T-cell activation (IL-2 secretion, CD25 surface staining), Biological Example 2; conditions: fold change over baseline; for IL-2 secretion CD3/CD28 0.3 μM / CD25 staining CD3/CD28 0.3 μM: 0.3 μM inhibitor; for IL-2 secretion CD3/CD28 0.3 μM / IL-2 secretion CD3/CD28 1 μM / CD25 staining CD3/CD28 0.3 μM / CD25 staining CD3/CD28 1 μM: anti-CD3 and anti-CD28 co-stimulation; for IL-2 secretion CD3/CD28 1 μM / CD25 staining CD3 1 μM / IL-2 secretion CD3 1 μM / CD25 staining CD3/CD28 1 μM: 1 μM inhibitor; for CD25 staining CD3 1 μM / IL-2 secretion CD3 1 μM / CD25 staining CD3 3 μM / IL-2 secretion CD3 3 μM: anti-CD3 stimulation alone; for CD25 staining CD3 3 μM / IL-2 secretion CD3 3 μM: 3 μM inhibitor
Description: Peripheral blood mononuclear cells (PBMC) were obtained either: 1) by using Ficoll-Paque™ (GE Healthcare) for separation of peripheral blood hematopoietic cells from buffy coats of healthy human donors; or 2) directly from LeukoPak donations. […] The cells were rested overnight at 37° C. 5% CO2. The Cbl-inhibitor was added to 1×10^5 cells per well and the plate was incubated for one hour at 37° C. in 5% CO2 at the concentrations indicated (Table 3) with a final DMSO concentration of <0.1%. For samples stimulated with anti-CD3 antibody and anti-CD28 antibody (anti-CD3/anti-CD28), the Cbl-b inhibitor concentrations tested were 1 μM, and 0.3 μM. For samples stimulated with anti-CD3 antibody alone (anti-CD3), the Cbl-b inhibitor concentrations tested were 3 μM, and 1 μM. […] To prepare plates with plate bound anti-CD3 antibody (OKT3), 96-well round bottom tissue culture plates were coated with 100 μL of anti-CD3 antibody (OKT3) at 10 μg/mL for 4 hours at 37° C. 5% CO2 in phosphate buffered saline (PBS). […] Cells were stimulated for 48 hours prior to harvesting the cell free supernatant and staining the cell population for surface marker assessment by flow cytometry. Supernatants were analyzed for cytokine secretion, including IL-2 by ELISA (R&D Systems, Peprotech or Life Technologies) or Luminex multiplex kits (Procarta Life Technologies) following the manufacturer's protocol. Cells were stained with anti-CD25 antibody (BD Biosciences) to assess levels of surface marker of activation.
Readouts were reported as fold change over baseline. Baseline for this study was the measurement obtained from total human T-cells stimulated with anti-CD3 antibody and with soluble anti-CD28 antibody, wherein the cells were not incubated with a Cbl-b inhibitor (Table 3).

Cbl-b [6] = molecular target: T1, Cbl-b; assay: Cbl-b displacement assay (Cbl-b inhibition assay), Biological Example 1; format: binding
Description: as §2
Following the one hour incubation, the plates were read for TR-FRET signal at 520/620 nm using an Envision plate reader (Perkin Elmer).

[7] = 3 μM inhibitor, anti-CD3 stimulation alone
[8] = 0.125 nM Cbl-b final concentration (Low), read-out: Cbl-b activity IC50 (Low)

T1 sequence (Q13191 36-427): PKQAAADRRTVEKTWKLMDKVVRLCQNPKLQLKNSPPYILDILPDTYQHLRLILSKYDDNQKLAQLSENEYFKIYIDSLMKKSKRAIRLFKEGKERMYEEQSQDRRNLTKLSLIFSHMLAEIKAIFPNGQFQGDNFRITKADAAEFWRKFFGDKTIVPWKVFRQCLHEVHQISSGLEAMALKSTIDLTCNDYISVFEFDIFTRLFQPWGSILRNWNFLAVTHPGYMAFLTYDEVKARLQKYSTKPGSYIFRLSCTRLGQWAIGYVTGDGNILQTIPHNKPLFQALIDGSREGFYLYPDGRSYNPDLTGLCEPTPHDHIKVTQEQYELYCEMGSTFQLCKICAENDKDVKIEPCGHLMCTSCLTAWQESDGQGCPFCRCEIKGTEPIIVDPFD

| Compound | IC50 (Cbl-b [6]; [8]) [nM] | IL-2 secretion CD3/CD28 0.3 μM [5] | IL-2 secretion CD3/CD28 1 μM [5] | CD25 staining CD3 1 μM [5] | IL-2 secretion CD3 1 μM [5] | CD25 staining CD3 3 μM [5] | IL-2 secretion CD3 3 μM [5] | CD25 staining CD3/CD28 0.3 μM [5] | CD25 staining CD3/CD28 1 μM [5] | also measured |
| --- | --- | --- | --- | --- | --- | --- | --- | --- | --- | --- |
| C[C@@H]1CN(Cc2cc3c(c(C(F)(F)F)c2)CN(c2cccc(C4(c5nncn5C)COC4)c2)C3=O)CCC1(F)F [Compound 47, 6-[[(3R)-4,4-difluoro-3-methyl-1-piperidyl]methyl]-2-[3-[3-(4-methyl-1,2,4-triazol-3-yl)oxetan-3-yl]phenyl]-4-(trifluoromethyl)isoindolin-1-one] | < 5 | A (A indicates >35 fold) | A (A indicates >35 fold) | B (B indicates 1.5-2.5 fold) | B (B indicates 0.70-1.1 fold) | B (B indicates 1.5-2.5 fold) | C (C indicates <0.70 fold) |  |  |  |
| C[C@@H]1CN(Cc2cc3c(c(C(F)(F)F)c2)CN(c2cccc([C@]4(c5nncn5C)C[C@@H](CC#N)C4)c2)C3=O)CCC1(F)F [Compound 49, 2-((1S,3s)-3-(3-(6-(((R)-4,4-difluoro-3-methylpiperidin-1-yl)methyl)-1-oxo-4-(trifluoromethyl)isoindolin-2-yl)phenyl)-3-(4-methyl-4H-1,2,4-triazol-3-yl)cyclobutyl)acetonitrile] | < 5 | A (A indicates >35 fold) | A (A indicates >35 fold) | A (A indicates >2.5 fold) | A (A indicates >1.1 fold) | A (A indicates >2.5 fold) | A (A indicates >1.1 fold) | B (B indicates 1.24-1.39 fold) | B (B indicates 1.24-1.39 fold) |  |
| C[C@@H]1CN(Cc2cc3c(c(C(F)(F)F)c2)CN(c2cccc([C@]4(c5nncn5C)C[C@H](CC#N)C4)c2)C3=O)CCC1(F)F [Compound 51, 2-((1R,3r)-3-(3-(6-(((R)-4,4-difluoro-3-methylpiperidin-1-yl)methyl)-1-oxo-4-(trifluoromethyl)isoindolin-2-yl)phenyl)-3-(4-methyl-4H-1,2,4-triazol-3-yl)cyclobutyl)acetonitrile] | < 5 | A (A indicates >35 fold) | A (A indicates >35 fold) | A (A indicates >2.5 fold) | A (A indicates >1.1 fold) | A (A indicates >2.5 fold) | A (A indicates >1.1 fold) | B (B indicates 1.24-1.39 fold) | B (B indicates 1.24-1.39 fold) |  |
| C[C@@H]1CN(Cc2cc3c(c(C(F)(F)F)c2)CN(c2cccc(C4(c5nncn5C)CC(F)(F)C4)c2)C3=O)CCC1(F)F [Compound 52, 2-{3-[3,3-difluoro-1-(4-methyl-1,2,4-triazol-3-yl)cyclobutyl]phenyl}-6-{[(3R)-4,4-difluoro-3-methylpiperidin-1-yl]methyl}-4-(trifluoromethyl)-3H-isoindol-1-one] | < 5 | A (A indicates >35 fold) | B (B indicates 20-35 fold) | A (A indicates >2.5 fold) | A (A indicates >1.1 fold) | A (A indicates >2.5 fold) | A (A indicates >1.1 fold) |  |  |  |

Second part, led by results:

| IC50 (Cbl-b [6]; [8]) [nM] | Compound | IL-2 secretion CD3/CD28 0.3 μM [5] | IL-2 secretion CD3/CD28 1 μM [5] | CD25 staining CD3 1 μM [5] | IL-2 secretion CD3 1 μM [5] | CD25 staining CD3 3 μM [5] | IL-2 secretion CD3 3 μM [5] | CD25 staining CD3/CD28 0.3 μM [5] | CD25 staining CD3/CD28 1 μM [5] | also measured |
| --- | --- | --- | --- | --- | --- | --- | --- | --- | --- | --- |
| < 5 | C[C@H]1CCCN(Cc2cc3c(c(C(F)(F)F)c2)CN(c2cccc([C@H](c4nncn4C)C4CCC4)c2)C3=O)C1 [Compound 3, 2-(3-((R)-cyclobutyl(4-methyl-4H-1,2,4-triazol-3-yl)methyl)phenyl)-6-(((S)-3-methylpiperidin-1-yl)methyl)-4-(trifluoromethyl)isoindolin-1-one] | A (A indicates >35 fold) | A (A indicates >35 fold) | A (A indicates >2.5 fold) | A (A indicates >1.1 fold) | A (A indicates >2.5 fold) | A (A indicates >1.1 fold) |  |  | IC50 (Cbl-b [1]): < 1 nM; IC50 (Cbl-b [2]): < 1 nM; IL-2 secretion CD3/CD28 0.3 μM [3]: A (A indicates >15 fold); IL-2 secretion CD3/CD28 1 μM [3]: A (A indicates >15 fold); IL-2 secretion CD3 1 μM ([3]; anti-CD3 stimulation alone): A (A indicates >0.66 fold); IL-2 secretion CD3 3 μM [3, 7]: A (A indicates >0.66 fold); IL-2 secretion CD3/CD28 0.3 μM [4]: A (A indicates >15 fold); IL-2 secretion CD3/CD28 1 μM [4]: A (A indicates >15 fold); IL-2 secretion CD3 1 μM ([4]; anti-CD3 stimulation alone): A (A indicates >0.66 fold); IL-2 secretion CD3 3 μM [4, 7]: A (A indicates >0.66 fold); IC50 (Cbl-b [6]; read-out: IC50 values in the Cbl-b inhibition assay of Biological Example 1): ≤ 5 nM |
| < 5 | C[C@@H]1CN(Cc2cc3c(c(C(F)(F)F)c2)CN(c2cccc([C@H](c4nncn4C)C4CCC4)c2)C3=O)CCO1 [Compound 17, 2-(3-((R)-cyclobutyl(4-methyl-4H-1,2,4-triazol-3-yl)methyl)phenyl)-6-(((R)-2-methylmorpholino)methyl)-4-(trifluoromethyl)isoindolin-1-one] | B (B indicates 20-35 fold) | A (A indicates >35 fold) | B (B indicates 1.5-2.5 fold) | A (A indicates >1.1 fold) | B (B indicates 1.5-2.5 fold) | A (A indicates >1.1 fold) | B (B indicates 1.24-1.39 fold) | B (B indicates 1.24-1.39 fold) | IL-2 secretion CD3/CD28 0.3 μM [3]: B (B indicates 11-15 fold); IL-2 secretion CD3/CD28 1 μM [3]: A (A indicates >15 fold); IL-2 secretion CD3 1 μM ([3]; anti-CD3 stimulation alone): A (A indicates >0.66 fold); CD25 staining CD3 3 μM [3, 7]: B (B indicates 1.05-1.14 fold); IL-2 secretion CD3 3 μM [3, 7]: A (A indicates >0.66 fold); IL-2 secretion CD3/CD28 0.3 μM [4]: B (B indicates 10-15 fold); IL-2 secretion CD3/CD28 1 μM [4]: A (A indicates >15 fold); IL-2 secretion CD3 1 μM ([4]; anti-CD3 stimulation alone): A (A indicates >0.66 fold); CD25 staining CD3 3 μM [4, 7]: B (B indicates 1.05-1.14 fold); IL-2 secretion CD3 3 μM [4, 7]: A (A indicates >0.66 fold) |
| < 5 | C[C@H]1CCCN(Cc2cc3c(c(C(F)(F)F)c2)CN(c2cccc([C@]4(c5nncn5C)C[C@@H](CC#N)C4)c2)C3=O)C1 [Compound 48, 2-((1R,3s)-3-(4-methyl-4H-1,2,4-triazol-3-yl)-3-(3-(6-(((S)-3-methylpiperidin-1-yl)methyl)-1-oxo-4-(trifluoromethyl)isoindolin-2-yl)phenyl)cyclobutyl)acetonitrile] | B (B indicates 20-35 fold) | A (A indicates >35 fold) | A (A indicates >2.5 fold) | A (A indicates >1.1 fold) | B (B indicates 1.5-2.5 fold) | B (B indicates 0.70-1.1 fold) |  |  |  |
| < 5 | C[C@H]1CCCN(Cc2cc3c(c(C(F)(F)F)c2)CN(c2cccc([C@]4(c5nncn5C)C[C@H](CC#N)C4)c2)C3=O)C1 [Compound 50, 2-((1S,3r)-3-(4-methyl-4H-1,2,4-triazol-3-yl)-3-(3-(6-(((S)-3-methylpiperidin-1-yl)methyl)-1-oxo-4-(trifluoromethyl)isoindolin-2-yl)phenyl)cyclobutyl)acetonitrile] | A (A indicates >35 fold) | A (A indicates >35 fold) | A (A indicates >2.5 fold) | A (A indicates >1.1 fold) | A (A indicates >2.5 fold) | A (A indicates >1.1 fold) |  |  |  |
| < 5 | C[C@@H]1CN(Cc2cc3c(c(C(F)(F)F)c2)CN(c2cccc(C4(c5nncn5C)CC(F)(F)C4)c2)C3=O)CCO1 [Compound 53, 2-{3-[3,3-difluoro-1-(4-methyl-1,2,4-triazol-3-yl)cyclobutyl]phenyl}-6-{[(2R)-2-methylmorpholin-4-yl]methyl}-4-(trifluoromethyl)-3H-isoindol-1-one] | A (A indicates >35 fold) | A (A indicates >35 fold) | A (A indicates >2.5 fold) | A (A indicates >1.1 fold) | A (A indicates >2.5 fold) | A (A indicates >1.1 fold) |  |  |  |
